Where a name gives a salt, the structure may show the parent alone. Read-outs that look alike come from different tables or passages of the source. Marks after values point to notes of the source that are not given here.
Key:
[1] = Pharmacokinetics of oral BBR in mice (portal vein and liver); type: in vivo, mice; conditions: for AUC0-∞ / AUC0–12 h / Cmax / MRT / Tmax / half-life / AUC(0-inf) / AUC(0-t): mice; for AUC(0-t): read-out: AUC0–12 h
Method: The dosages of malic acid were, respectively, equal to the dosages of malic acid in the 1 and 10% water dilutions of the NADES. […] Six mice in each group were anesthetized using diethyl ether at 0.25, 0.5, 1, 2, 3, 4, 6, 8, or 12 h after administration. Blood samples were then collected from the portal vein into heparin-containing tubes. The plasma samples were obtained by centrifugation of the blood samples at 1,000 g for 10 min at 4°C. The livers of the mice were collected and homogenized in 10 × volume of water. At the end of the experiment, the mice were euthanized by cervical dislocation.
A non-compartmental analysis using WinNonlin® software (Pharsight, CA, United States) was performed to obtain the pharmacokinetic parameters of berberine in mice. It should be noted that the pharmacokinetic parameters were calculated based on the average drug concentration at each time point because the mice were not continuously sampled.

[2] = ref Liu et al., cited from earlier work
[3] = Solubility of berberine hydrochloride in the NADES, its water dilutions and malic acid solutions; type: physicochemical
Method: BBR was dissolved in pure water as a control. The solutions were ultrasonically treated for 1 h, and after full vortexing, the solutions were placed at room temperature for 1 h. Next, the solutions were centrifuged at 20,000 g for 10 min at 20°C. The obtained supernatant was filtered through a 0.22 μm membrane. The filtered solution was diluted with a certain volume of methanol, followed by injection into the LC-MS system for the quantitative analysis of BBR (Quantification of several Coptidis Rhizomaalkaloids).
The concentrations of the primary metabolites were equal to their concentrations in the NADES, i.e., 490.5 mg/ml, 280.6 mg/ml, 517.7 mg/ml, and 19.0 mg/ml, respectively.

[4] = Transportation of BBR across MDCK-MDR1 cell monolayer; type: in vitro ADME, canine; conditions: dog, MDCK-MDR1
Method: (§1) MDCK-MDR1 cells were seeded on a Merck Transwell polycarbonate membrane (NJ, United States) at a density of 2 × 10^5 cells/mL. The cells were cultured until the tight junctions were formed (transepithelial electrical resistance value >500 Ω cm2). Before the experiment, the media on both sides of the chamber were replaced with a warmed HBSS solution. The cells were then incubated for 20 min at 37°C.
(§2) The unit of P app is cm/sec.

[5] = test system: MDCK-MDR1 cell monolayer; test: as above; type: in vitro ADME, canine; conditions: for P app (AP-BL) / P app (BL-AP) / ERs (efflux rate): BBR 10 μg/ml
Method: as §1, §2

[6] = test system: MDCK-MDR1 cells; test: Cytotoxicity in MDCK-MDR1 cells (CCK-8); conditions: 4 and 24 h; for Cytotoxicity: p > 0.05
Method: The cells were seeded into 96 well plate at the density of 3 × 10^4 cells per well. After 24 h incubation in the incubator, the culture medium was carefully sucked out, and then 200 μL DMEM medium containing 0.1, 0.3, 1 or 3% NADES was added. The control well was added with the same volume of DMEM medium. After incubation for 4 h or 24 h, 10% CCK-8 solution was added. After incubation for another 2 h, the absorbance at 450 nm was measured by using a microplate reader. The cytotoxicity of the NADES dilutions was evaluated by comparing the absorbance of the treatment groups to that of the control group.
The above method was also used to evaluate the cytotoxicity of different concentrations of malic acid, i.e., 4.90, 1.47 or 0.49 mg/ml, which were, respectively, equal to the concentrations of malic acid in the 1, 0.3 or 0.1% dilutions of the NADES.

[7] = test system: mouse gut sacs; test: Transportation of BBR in mouse gut sacs; type: in vitro ADME; conditions: BBR 200 μg/ml
Method: After incubation, aliquots of buffer (100 μL) were, respectively, taken from the serosal side or mucosal side every 15–60 min and replaced with an equal volume of blank Krebs-Ringer buffer. The LC-MS system (Quantification of several Coptidis Rhizomaalkaloids) was used for the quantitative analysis of BBR.

[8] = test system: ICR mice; test: Acute toxicity in mice; type: in vivo; conditions: malic acid 9,800, 2,940 or 980 mg/kg oral
Method: Sixty ICR mice were randomly divided into three groups according to gender and body weight, with 20 mice in each group. After fasting for 12 h, the mice were orally administered with 0.2 ml/10 g body weight the NADES (the four-component NADES prepared with 350 μL water, the same below) or its 30 and 10% water dilutions, respectively. The symptoms of the mice were then observed, and the death time and the number of dead mice within 3 days were recorded.
The above method was also used to evaluate the acute toxicity of malic acid at different dosages, i.e., 9,800, 2,940, or 980 mg/kg, which were, respectively, equal to the dosages of malic acid in the NADES and its 30%, and10% water dilutions.

[9] = test system: intestinal paracellular tight junctions (mouse gut sac); test: Transportation of FD4 across mouse gut sacs (tight junction integrity); type: in vitro ADME
Method: Fluorescein isothiocyanate-labeled dextran (FD4) with a molecular weight of 4,400 g/moL, is usually used to test the integrity of intestinal paracellular tight junctions ([Ma et al., 2012]). The influence of various NADES dilutions (1, 3, and 10%) on the in vitro transportation of FD4 (3 mg/ml) across the mouse gut sac was determined. The concentrations of FD4 were determined using a fluorescence microplate reader (BioTek Instruments, Winooski, VT, United States), with excitation and emission at 485 and 528 nm, respectively, ([Ma et al., 2012]). In addition, the effects of NADES dilutions pretreatment on the transportation of FD4 across the mouse gut sacs were also determined. Several mice were orally administered with 10% NADES aqueous solution. The intestines were collected after 4 h, completely washed with blank Krebs-Ringer buffer, and subsequently used for the transportation study.

[10] = livers, oral BBR 200 mg/kg dissolved in water (Control)
[11] = livers, oral BBR 200 mg/kg in 1% NADES dilution
[12] = livers, oral BBR 200 mg/kg in 10% NADES dilution
[13] = livers, oral BBR 200 mg/kg in malic acid solution 98 mg/kg
[14] = livers, oral BBR 200 mg/kg in malic acid solution 980 mg/kg
[15] = mouse, liver, po, 200 mg/kg, livers, oral BBR 200 mg/kg dissolved in water (Control)
[16] = mouse, liver, po, 200 mg/kg, livers, oral BBR 200 mg/kg in 1% NADES dilution
[17] = mouse, liver, po, 200 mg/kg, livers, oral BBR 200 mg/kg in 10% NADES dilution
[18] = mouse, liver, po, 200 mg/kg, livers, oral BBR 200 mg/kg in malic acid solution 98 mg/kg
[19] = mouse, liver, po, 200 mg/kg, livers, oral BBR 200 mg/kg in malic acid solution 980 mg/kg
[20] = mouse, portal vein plasma, po, 200 mg/kg, portal vein, oral BBR 200 mg/kg dissolved in water (Control)
[21] = mouse, portal vein plasma, po, 200 mg/kg, portal vein, oral BBR 200 mg/kg in 1% NADES dilution
[22] = mouse, portal vein plasma, po, 200 mg/kg, portal vein, oral BBR 200 mg/kg in 10% NADES dilution
[23] = mouse, portal vein plasma, po, 200 mg/kg, portal vein, oral BBR 200 mg/kg in malic acid solution 98 mg/kg
[24] = mouse, portal vein plasma, po, 200 mg/kg, portal vein, oral BBR 200 mg/kg in malic acid solution 980 mg/kg

For `COc1ccc2cc3[n+](cc2c1OC)CCc1cc2c(cc1-3)OCO2` [BBR, Berberine hydrochloride], the “AUC0-∞” value [1, 10] was 68.4 μg·h/g liver, the “AUC0–12 h” value [1, 10] was 66.3 μg·h/g liver and the Cmax [1, 10] was 16.7 μg/g liver. The “AUC0-∞” value [1, 11] was 80.9 μg·h/g liver, the “AUC0–12 h” value [1, 11] was 74.5 μg·h/g liver and the Cmax [1, 11] was 29.3 μg/g liver. For the same compound, the “AUC0-∞” value [1, 12] was 112.5 μg·h/g liver, the “AUC0–12 h” value [1, 12] was 109.4 μg·h/g liver and the Cmax [1, 12] was 34.8 μg/g liver. The “AUC0-∞” value [1, 13] was 73.8 μg·h/g liver, the “AUC0–12 h” value [1, 13] was 72.3 μg·h/g liver and the Cmax [1, 13] was 38.0 μg/g liver. The “AUC0-∞” value [1, 14] was 88.3 μg·h/g liver, the “AUC0–12 h” value [1, 14] was 85.9 μg·h/g liver and the Cmax [1, 14] was 30.0 μg/g liver. For the same compound, the “Toxic reaction after oral administration” value ([1]; mouse, in vivo, po) was “no toxic reaction”, the MRT [1, 15] was 3.7 h and the Tmax [1, 15] was 2 h. The half-life [1, 15] was 2.2 h, the MRT [1, 16] was 3.2 h and the Tmax [1, 16] was 2 h. For the same compound, the MRT [1, 17] was 3 h, the Tmax [1, 17] was 1 h and the half-life [1, 17] was 2.2 h. For the same compound, the MRT [1, 18] was 3 h, the Tmax [1, 18] was 2 h and the half-life [1, 18] was 2.3 h. The MRT [1, 19] was 2.5 h, the Tmax [1, 19] was 1 h and the half-life [1, 19] was 1.5 h. For the same compound, the AUC(0-inf) [1, 20] was 1130 ng·h/mL, the MRT [1, 20] was 3.1 h and the Tmax [1, 20] was 2 h. For the same compound, the half-life [1, 20] was 1.7 h, the AUC(0-t) [1, 20] was 1120 ng·h/mL and the Cmax ([1]; mouse, portal vein plasma, po, 200 mg/kg, portal vein, oral BBR 200 mg/kg dissolved in water (Control), read-out: Cmax) was 321 ng/mL. The AUC(0-inf) [1, 21] was 2740 ng·h/mL, the MRT [1, 21] was 2.9 h and the Tmax [1, 21] was 2 h. The half-life [1, 21] was 1.3 h, the AUC(0-t) [1, 21] was 2730 ng·h/mL and the Cmax ([1]; mouse, portal vein plasma, po, 200 mg/kg, portal vein, oral BBR 200 mg/kg in 1% NADES dilution, read-out: Cmax) was 975 ng/mL. For the same compound, the AUC(0-inf) [1, 22] was 3610 ng·h/mL, the MRT [1, 22] was 2.4 h and the Tmax [1, 22] was 1 h. For the same compound, the half-life [1, 22] was 1.7 h, the AUC(0-t) [1, 22] was 3590 ng·h/mL and the Cmax ([1]; mouse, portal vein plasma, po, 200 mg/kg, portal vein, oral BBR 200 mg/kg in 10% NADES dilution, read-out: Cmax) was 1470 ng/mL. For the same compound, the AUC(0-inf) [1, 23] was 2300 ng·h/mL, the MRT [1, 23] was 2.7 h and the Tmax [1, 23] was 2 h. The half-life [1, 23] was 2.7 h, the AUC(0-t) [1, 23] was 2230 ng·h/mL and the Cmax ([1]; mouse, portal vein plasma, po, 200 mg/kg, portal vein, oral BBR 200 mg/kg in malic acid solution 98 mg/kg, read-out: Cmax) was 972 ng/mL. It also gave an AUC(0-inf) [1, 24] of 3070 ng·h/mL, an MRT [1, 24] of 2.1 h and a Tmax [1, 24] of 1 h. For the same compound, the half-life [1, 24] was 1.4 h, the AUC(0-t) [1, 24] was 3060 ng·h/mL and the Cmax ([1]; mouse, portal vein plasma, po, 200 mg/kg, portal vein, oral BBR 200 mg/kg in malic acid solution 980 mg/kg, read-out: Cmax) was 1250 ng/mL. The “Fraction of oral BBR directly removed with feces” value [2]; 2010 was “about 56%”, the “Fraction of oral BBR eliminated by intestinal efflux transporters and drug metabolizing enzymes” value [2]; 2010 was “about 43.5%” and the Oral bioavailability [2]; 2010 was 0.36%. For the same compound, the “Fraction of BBR directly discharged from the body after oral administration” value [2]; 2016 was “about 56%”, the “Fraction of oral BBR eliminated during intestinal absorption” value [2]; 2016 was 43.5% and the solubility ([3]; NADES (undiluted), in the NADES (100%), room temperature (20°C)) was no less than 20 mg/mL. For the same compound, the “Solubility of berberine hydrochloride” value ([3]; as the pH of the malic acid solution was increased by addition of NaOH, p < 0.01) was “increased”, the “Solubility of BBR compared with water” value ([3]; in 10% water dilution of NADES, p < 0.01) was “higher” and the “Solubility of BBR compared with water” value ([3]; in 30% water dilution of NADES, p < 0.01) was “higher”. For the same compound, the Papp A→B at 10 μg/ml [4] was 0.41 ± 0.06 ×10⁻⁶ cm/s, the Papp B→A at 10 μg/ml [4] was 13.3 ± 0.4 ×10⁻⁶ cm/s and the “P app (AP-BL)” value ([5]; with 0.3% NADES) was 0.88 ± 0.13 ×10^−6 cm/s. The “P app (BL-AP)” value ([5]; with 0.3% NADES) was 13.1 ± 1.9 ×10^−6 cm/s, the “ERs (efflux rate)” value ([5]; with 0.3% NADES, p < 0.05 vs Control) was 14.9* and the “P app (AP-BL)” value ([5]; with 1% NADES) was 20.1 ± 8.7 ×10^−6 cm/s. For the same compound, the “P app (BL-AP)” value ([5]; with 1% NADES) was 21.7 ± 1.4 ×10^−6 cm/s, the “ERs (efflux rate)” value ([5]; with 1% NADES, p < 0.01 vs Control) was 1.1** and the “P app from AP to BL” value ([5]; BBR alone) was “lower than 10^−6 cm/s”.
For `O=C(O)CC(O)C(=O)O` (centres unmarked) [malic acid], the Cytotoxicity ([6]; 0.49 mg/ml malic acid) was “no significant cytotoxicity”, the Cytotoxicity ([6]; 1.47 mg/ml malic acid) was “no significant cytotoxicity” and the Cell viability ([6]; 4.9 mg/ml malic acid, p < 0.01) was “completely lost”. For the same compound, the “Effect on efflux of BBR in gut sacs” value ([7]; malic acid 14.7 mg/ml or more) was “promoted the efflux”, the “Effect on absorption of BBR in gut sacs” value ([7]; malic acid 4.9–49.0 mg/ml, concentration-dependent) was “promoted the absorption” and the Acute toxicity [8] was “significant acute toxicity”. For the same compound, the “Effect on absorption of FD4 across mouse gut sacs” value ([9]; malic acid 4.9, 14.7, 49.0 mg/ml present, concentration dependent, p < 0.01) was “increased the absorption” and the “Reversibility of the effect on FD4 absorption” value ([9]; malic acid pretreatment for 4 h) was “reversible”.
